IC50 data for 31 compounds are collected here from patent US20250346569A1, “NEW DERIVATIVES FOR TREATING TRPM3 MEDIATED DISORDERS” (Katholieke Universiteit Leuven, priority 2022, published 2025).

Each structure is given as a SMILES string.

The target in the test is T1, mouse TRPM3α2 (mTRPM3) ion channel (Mus musculus, UniProt J9SQF3).
T1 construct: expressed in transfected cells; host or cells: flip-in HEK293
Description: Monitoring the TRPM3 ion channel driven Ca2+ uptake (Fluo-4 AM assay). The class given is cell-based. As to conditions: TRPM3 overexpressing flip-in HEK293 cells, channel stimulated with Pregnenolone sulfate (PS) 50 μM. Here is the method: Monitoring the TRPM3 ion channel driven Ca^2+ uptake.
In order to monitor the inhibition of the mouse TRPM3α2 (mTRPM3) ion channel by the compounds of the invention, a cellular system making use of an mTRPM3alpha2 or hTRPM3 overexpressing cell line (flip-in HEK293) was used. The TRPM3 channel was stimulated/opened with Pregnenolone sulfate (PS) (50 μM) which results in Ca^2+ influx.
For mTRPM3, the intracellular Ca^2+ was measured with a Calcium responsive dye, Fluor-4 AM ester (Invitrogen). Cells were cultured until a confluence of 80-90%, washed with Versene (Invitrogen) and detached from the surface by a short incubation with 0.05% Trypsin (Invitrogen). The trypsination process was stopped by the addition of complete cell culture medium (DMEM, glutamax,10% FCS,NEAA,Pen-Strep). Cells were collected and resuspended in Krebs buffer without Calcium at RT.
Prior the cell seeding (±2000 cells/well into a black, 384 well plate (Greiner)) the diluted compound was added in the assay plate, together with the PS dissolved in Krebs buffer containing Calcium. […] Directly after cell addition the plates were read on an Envision fluorescence reader (Perkin Elmer) by an Excitation of 485 nm and emission at 535 nm.
Channel inhibition was calculated compared to a non-PS stimulated control versus a condition stimulated with PS (50 μM) with vehicle. The ability of the compounds of the invention to inhibit this activity was determined as: Percentage inhibition=[1−((RFU determined for sample with test compound present−RFU determined for sample with positive control inhibitor) divided by (RFU determined in the presence of vehicle−RFU determined for sample with positive control inhibitor))]*100.
The activities of the Example compounds tested are depicted in the table below. The activity ranges A, B and C refer to IC50 values in the Fluo-4 AM assay as follows: “A”: IC50<1 μM; “B”: 1 μM≤IC50≤20 μM and “C”: IC50>20 μM

T1 sequence (J9SQF3 1-1709 isoform J9SQF3-12): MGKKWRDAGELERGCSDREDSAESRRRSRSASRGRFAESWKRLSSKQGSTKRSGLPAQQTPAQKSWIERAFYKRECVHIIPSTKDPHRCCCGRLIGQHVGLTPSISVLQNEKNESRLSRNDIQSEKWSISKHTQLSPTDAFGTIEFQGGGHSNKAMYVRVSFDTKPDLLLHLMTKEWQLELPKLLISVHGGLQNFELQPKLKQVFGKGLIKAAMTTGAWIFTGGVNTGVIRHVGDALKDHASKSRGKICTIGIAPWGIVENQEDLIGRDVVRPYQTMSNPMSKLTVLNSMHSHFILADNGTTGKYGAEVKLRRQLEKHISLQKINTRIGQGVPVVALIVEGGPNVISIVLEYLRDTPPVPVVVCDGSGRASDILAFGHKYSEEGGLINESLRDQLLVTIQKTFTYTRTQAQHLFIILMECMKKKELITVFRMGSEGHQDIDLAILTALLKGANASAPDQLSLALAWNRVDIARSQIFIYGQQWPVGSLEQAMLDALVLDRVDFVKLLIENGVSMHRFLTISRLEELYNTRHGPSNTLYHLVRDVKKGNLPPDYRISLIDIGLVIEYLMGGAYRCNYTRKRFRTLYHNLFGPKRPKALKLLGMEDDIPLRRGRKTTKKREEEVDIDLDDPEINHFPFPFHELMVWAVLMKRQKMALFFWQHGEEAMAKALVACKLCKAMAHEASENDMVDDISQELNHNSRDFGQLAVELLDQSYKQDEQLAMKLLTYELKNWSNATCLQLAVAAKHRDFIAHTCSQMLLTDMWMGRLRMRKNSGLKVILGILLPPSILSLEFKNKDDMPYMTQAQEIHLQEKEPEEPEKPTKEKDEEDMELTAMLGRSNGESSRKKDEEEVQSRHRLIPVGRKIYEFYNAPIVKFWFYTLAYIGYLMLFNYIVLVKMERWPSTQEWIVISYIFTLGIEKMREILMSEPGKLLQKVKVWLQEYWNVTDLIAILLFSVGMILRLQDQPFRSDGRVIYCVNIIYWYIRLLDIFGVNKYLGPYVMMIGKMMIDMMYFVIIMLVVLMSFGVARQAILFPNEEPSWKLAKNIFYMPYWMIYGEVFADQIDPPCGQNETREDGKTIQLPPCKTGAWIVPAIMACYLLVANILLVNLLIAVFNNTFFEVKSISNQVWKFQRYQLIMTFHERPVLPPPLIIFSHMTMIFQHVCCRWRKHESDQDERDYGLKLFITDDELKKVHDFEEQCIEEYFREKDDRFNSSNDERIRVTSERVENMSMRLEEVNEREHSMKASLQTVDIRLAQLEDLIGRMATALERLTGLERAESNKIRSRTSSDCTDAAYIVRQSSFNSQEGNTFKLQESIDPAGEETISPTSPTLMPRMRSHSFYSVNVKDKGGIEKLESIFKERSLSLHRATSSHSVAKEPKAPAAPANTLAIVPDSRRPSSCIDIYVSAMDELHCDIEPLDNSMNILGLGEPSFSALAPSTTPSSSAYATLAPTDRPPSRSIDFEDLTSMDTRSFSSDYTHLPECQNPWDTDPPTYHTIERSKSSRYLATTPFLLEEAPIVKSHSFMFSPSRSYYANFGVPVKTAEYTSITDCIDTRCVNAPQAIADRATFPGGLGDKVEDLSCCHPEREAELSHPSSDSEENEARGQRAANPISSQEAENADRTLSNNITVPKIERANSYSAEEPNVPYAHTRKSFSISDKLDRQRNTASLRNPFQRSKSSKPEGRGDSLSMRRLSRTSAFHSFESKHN

In turn, `Cc1sc2ccc(OCc3ccccc3)cc2c1C(=O)NC1CCOC1` (stereo not shown) [Cpd 096, 5-(benzyloxy)-2-methyl-N-(oxolan-3-yl)-1-benzothiophene-3-carboxamide] registered an IC50 of less than 1000 nM.

For the compound `Cc1ncsc1COc1ccc2sc(C)c(C(=O)NC3(C(N)=O)COC3)c2c1` [Cpd 038, 3-{2-methyl-5-[(4-methyl-1,3-thiazol-5-yl)methoxy]-1-benzothiophene-3-amido}oxetane-3-carboxamide], the IC50 is less than 1000 nM.

Take `Cc1ncsc1COc1ccc2sc(C)c(C(=O)O)c2c1` [Cpd 049, 2-methyl-5-[(4-methyl-1,3-thiazol-5-yl)methoxy]-1-benzothiophene-3-carboxylic acid]: the IC50 was 1000 to 20000 nM.

The compound `Cc1sc2ccc(OCc3cccnc3O)cc2c1C(=O)NC1(CO)CCOCC1` [Cpd 084, N-[4-(hydroxymethyl)oxan-4-yl]-5-[(2-hydroxypyridin-3-yl)methoxy]-2-methyl-1-benzothiophene-3-carboxamide] came in with an IC50 of less than 1000 nM.

As for `CNC(=O)C1(NC(=O)c2c(C)sc3ccc(OCc4cnc(C)s4)cc23)CCOC1` (single isomer, unassigned) [Cpd 133 - En1, N-methyl-3-{2-methyl-5-[(2-methyl-1,3-thiazol-5-yl)methoxy]-1-benzothiophene-3-amido}oxolane-3-carboxamide], the half-inhibitory concentration (IC50) is less than 1000 nM.

With `Cc1ncsc1COc1ccc2sc(C)c(C(=O)NCC3(N(C)C)CCCC3)c2c1` [Cpd 114, N-{[1-(dimethylamino)cyclopentyl]methyl}-2-methyl-5-[(4-methyl-1,3-thiazol-5-yl)methoxy]-1-benzothiophene-3-carboxamide], the IC50 was less than 1000 nM.

Turning to `Cc1ncsc1COc1ccc2sc(C)c(C(=O)NC3CCNCC3(F)F)c2c1` (single isomer, unassigned) [Cpd 042 - En2, N-(3,3-difluoropiperidin-4-yl)-2-methyl-5-[(4-methyl-1,3-thiazol-5-yl)methoxy]-1-benzothiophene-3-carboxamide], the IC50 is less than 1000 nM.

`Cc1sc2ccc(OCc3ccccc3F)cc2c1C(=O)NC1(CO)CCOCC1` [Cpd 081, 5-[(2-fluorophenyl)methoxy]-N-[4-(hydroxymethyl)oxan-4-yl]-2-methyl-1-benzothiophene-3-carboxamide] displayed an IC50 of less than 1000 nM.

On to `Cc1ncsc1COc1ccc2sc(C)c(C(=O)NC3CCOC3)c2c1` (stereo not shown) [Cpd 043, 2-methyl-5-[(4-methyl-1,3-thiazol-5-yl)methoxy]-N-(oxolan-3-yl)-1-benzothiophene-3-carboxamide], for which the IC50 is less than 1000 nM.

Compound `O=C(NC1CCOC1)c1c(C(F)F)sc2ccc(OCc3ccccc3)cc12` (stereo not shown) [Cpd 147, 5-(benzyloxy)-2-(difluoromethyl)-N-(oxolan-3-yl)-1-benzothiophene-3-carboxamide] had an IC50 of 1000 to 20000 nM.

`Cc1ncc(COc2ccc3sc(C)c(C(=O)NC4(C(N)=O)COC4)c3c2)s1` [Cpd 026, 3-{2-methyl-5-[(2-methyl-1,3-thiazol-5-yl)methoxy]-1-benzothiophene-3-amido}oxetane-3-carboxamide] registered an IC50 of less than 1000 nM.

In turn, `Cc1sc2ccc(OCc3ccccn3)cc2c1C(=O)N[C@H](CO)C(N)=O` [Cpd 057, (2R)-3-hydroxy-2-({2-methyl-5-[(pyridin-2-yl)methoxy]-1-benzothiophen-3-yl}formamido)propanamide] yielded an IC50 of less than 1000 nM.

`Cc1ncc(COc2ccc3sc(C)c(C(=O)NC(C)(CO)C(N)=O)c3c2)s1` (single isomer, unassigned) [Cpd 019 - En1, 3-hydroxy-2-methyl-2-({2-methyl-5-[(2-methyl-1,3-thiazol-5-yl)methoxy]-1-benzothiophen-3-yl}formamido)propanamide] displayed an IC50 of less than 1000 nM.

The compound `Cc1ncsc1COc1ccc2sc(C)c(C(=O)N[C@@H](CO)C(N)=O)c2c1` [Cpd 027, (2S)-3-hydroxy-2-({2-methyl-5-[(4-methyl-1,3-thiazol-5-yl)methoxy]-1-benzothiophen-3-yl}formamido)propanamide] came in with a concentration for half-maximal inhibition (IC50) of less than 1000 nM.

`Cc1sc2ccc(OCc3cccnc3C(F)(F)F)cc2c1C(=O)NC1(CO)CCOCC1` [Cpd 083, N-[4-(hydroxymethyl)oxan-4-yl]-2-methyl-5-{[2-(trifluoromethyl)pyridin-3-yl]methoxy}-1-benzothiophene-3-carboxamide] registered an IC50 of 1000 to 20000 nM.

`Cc1sc2ccc(OCC3CCOCC3)cc2c1C(=O)NC(C)(CO)C(N)=O` (single isomer, unassigned) [Cpd 067 - En2, 3-hydroxy-2-methyl-2-({2-methyl-5-[(oxan-4-yl)methoxy]-1-benzothiophen-3-yl}formamido)propanamide] registered an IC50 of 1000 to 20000 nM.

The compound `CCOC(=O)c1c(C)sc2ccc(OC)cc12` [Cpd 110, ethyl 5-methoxy-2-methyl-1-benzothiophene-3-carboxylate] returned a 50% inhibitory concentration (IC50) of more than 20000 nM.

`Cc1sc2ccc(OCc3ccccn3)cc2c1C(=O)NC1(CO)CC1` [Cpd 075, N-[1-(hydroxymethyl)cyclopropyl]-2-methyl-5-[(pyridin-2-yl)methoxy]-1-benzothiophene-3-carboxamide] displayed an IC50 of 1000 to 20000 nM.

For `Cc1ncc(COc2ccc3sc(C)c(C(=O)N[C@@H](CO)C(N)=O)c3c2)s1` [Cpd 016, (2S)-3-hydroxy-2-({2-methyl-5-[(2-methyl-1,3-thiazol-5-yl)methoxy]-1-benzothiophen-3-yl}formamido)propanamide], the IC50 was less than 1000 nM.

`Cc1sc2ccc(OCc3cccnc3C(F)(F)F)cc2c1C(=O)NC1(CO)CC1` [Cpd 076, N-[1-(hydroxymethyl)cyclopropyl]-2-methyl-5-{[2-(trifluoromethyl)pyridin-3-yl]methoxy}-1-benzothiophene-3-carboxamide] yielded an IC50 of less than 1000 nM.

Consider `Cc1sc2ccc(OCc3ccccc3F)cc2c1C(=O)NC(C)(C)C(N)=O` [Cpd 063, 2-({5-[(2-fluorophenyl)methoxy]-2-methyl-1-benzothiophen-3-yl}formamido)-2-methylpropanamide], for which the IC50 was less than 1000 nM.

`Cc1sc2ccc(OCc3ccccc3)cc2c1C(=O)NC1(CO)CCOCC1` [Cpd 080, 5-(benzyloxy)-N-[4-(hydroxymethyl)oxan-4-yl]-2-methyl-1-benzothiophene-3-carboxamide] gave an IC50 of 1000 to 20000 nM.

The compound `Cc1sc2ccc(OCc3cccnc3C(F)(F)F)cc2c1C(=O)NCc1cccc(O)n1` [Cpd 105, N-[(6-hydroxypyridin-2-yl)methyl]-2-methyl-5-{[2-(trifluoromethyl)pyridin-3-yl]methoxy}-1-benzothiophene-3-carboxamide] gave an IC50 of less than 1000 nM.

As to `Cc1ncsc1COc1ccc2sc(C)c(C(=O)N[C@H]3CCN(CCO)C3=O)c2c1` [Cpd 030, N-[(3S)-1-(2-hydroxyethyl)-2-oxopyrrolidin-3-yl]-2-methyl-5-[(4-methyl-1,3-thiazol-5-yl)methoxy]-1-benzothiophene-3-carboxamide], the IC50 was less than 1000 nM.

The compound `CN1CCC(NC(=O)c2c(C(F)F)sc3ccc(OCc4ccccc4)cc23)CC1` [Cpd 128, 5-(benzyloxy)-2-(difluoromethyl)-N-(1-methylpiperidin-4-yl)-1-benzothiophene-3-carboxamide] yielded an IC50 of 1000 to 20000 nM.

Compound `Cc1sc2ccc(OCc3cccnc3O)cc2c1C(=O)NC1(C(=O)O)CCOCC1` [Cpd 072, 4-{5-[(2-hydroxypyridin-3-yl)methoxy]-2-methyl-1-benzothiophene-3-amido}oxane-4-carboxylic acid] registered an IC50 of more than 20000 nM.

Take `Cc1ncsc1COc1ccc2sc(C)c(C(=O)N[C@@H]3CCN(CCO)C3=O)c2c1` [Cpd 028, N-[(3R)-1-(2-hydroxyethyl)-2-oxopyrrolidin-3-yl]-2-methyl-5-[(4-methyl-1,3-thiazol-5-yl)methoxy]-1-benzothiophene-3-carboxamide]: the IC50 is 1000 to 20000 nM.

`Cc1ncsc1COc1ccc2sc(C)c(C(=O)NC3(CO)CC3)c2c1` [Cpd 034, N-[1-(hydroxymethyl)cyclopropyl]-2-methyl-5-[(4-methyl-1,3-thiazol-5-yl)methoxy]-1-benzothiophene-3-carboxamide] had an IC50 of less than 1000 nM.

The compound `Cc1nc(COc2ccc3sc(C)c(C(=O)NC(C)(CO)C(N)=O)c3c2)cs1` (single isomer, unassigned) [Cpd 015 - En1, 3-hydroxy-2-methyl-2-({2-methyl-5-[(2-methyl-1,3-thiazol-4-yl)methoxy]-1-benzothiophen-3-yl}formamido)propanamide] came in with an IC50 of less than 1000 nM.

For `Cc1ncsc1COc1ccc2sc(C)c(C(=O)NC3CCN(C)CC3)c2c1` [Cpd 130, 2-methyl-5-[(4-methyl-1,3-thiazol-5-yl)methoxy]-N-(1-methylpiperidin-4-yl)-1-benzothiophene-3-carboxamide], the IC50 is 1000 to 20000 nM.

As for `Cc1sc2ccc(OCc3cccnc3C(F)(F)F)cc2c1C(=O)N[C@H](C)C(N)=O` [Cpd 004, (2R)-2-[(2-methyl-5-{[2-(trifluoromethyl)pyridin-3-yl]methoxy}-1-benzothiophen-3-yl)formamido]propanamide], the IC50 was less than 1000 nM.

One may read the IC50 as the concentration that gives 50% inhibition. Read a low IC50 as inhibition by little substance.
